Like-named read-outs stand apart in the source and are kept apart here.
Biological target: T1, recombinant human Syk (GST-hSyk fusion protein) (Homo sapiens, UniProt P43405)
T1 construct: purchased Carna Biosciences 08-176
Test: Homogeneous Time-Resolved Fluorescence (HTRF) assay for the recombinant human Syk enzyme
Format: biochemical
Conditions: 10-dose titration, 25 μM ATP
Outline: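 IC50 came from a four-parameter fit over ten doses, 10 μM to 0.508 nM, with HTRF read-out (Eu-anti-pTyr antibody, SA-APC, EDTA stop, 30 min). The enzyme, 5 pM GST-hSyk, met compound for 10 min, then phosphorylated 250 nM biotin-peptide with 25 μM ATP and 5 mM Mg for 45 min at room temperature, pH 7.5.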

[1] = IC50 class, read-out: rhSYK Activity

Row | Structure (SMILES) | IC50 [1] | IC50 (read-out: rhSYK IC50)
1 | Cc1cc(Nc2nccc(C(F)(F)F)n2)cc(-c2cnn(C3CCC(C(N)=O)CC3)c2)c1 (stereo not drawn) [Example 8.6, 4-[4-(3-methyl-5-{[4-(trifluorometh-yl)pyrimidin-2-yl]amino}-phenyl)-1H-pyrazol-1-yl]cyclohexane-carboxamide] | ≤ 100 nM | –
2 | Cc1cc(Nc2nccc(C(F)(F)F)n2)cc(-c2cnn(C3CCC(C(N)=O)C(C)(C)C3)c2)c1 (stereo not drawn) [Example 8.7, 2,2-dimethyl-4-[4-(3-methyl-5-{[4-(trifluoromethyl)-pyrimidin-2-yl]amino}-phenyl)-1H-pyrazol-1-yl]cyclohexane-carboxamide] | ≤ 100 nM | –
3 | Cc1cc(Nc2nccc(C(F)(F)F)n2)cc(-c2cnn(CCCC(N)=O)c2)c1 [Example 8.9, 4-[4-(3-methyl-5-{[4-(trifluoromethyl)-pyrimidin-2-yl]amino}phenyl)-1H-pyrazol-1-yl]butanamide] | ≤ 100 nM | –
4 | Cc1cc(Nc2nccc(C)n2)cc(-c2cnn(C(C)(C)C(N)=O)c2)c1 [Example 8.10, 2-methyl-2-(4-{3-methyl-5-[(4-methyl-pyrimidin-2-yl)amino]-phenyl}-1H-pyrazol-1-yl)propanamide] | 100 to 1000 nM | –
5 | Cc1cc(Nc2nccc(C(F)(F)F)n2)cc(-c2cnn(CC(O)c3ccc(C(N)=O)cc3)c2)c1 (stereo not drawn) [Example 8.12, 4-{1-hydroxy-2-[4-(3-methyl-5-{[4-(trifluoromethyl)-pyrimidin-2-yl]amino}-phenyl)-1H-pyrazol-1-yl]ethyl}benzamide] | ≤ 100 nM | –
6 | Cc1cc(Nc2nccc(C(F)(F)F)n2)cc(-c2cnn(C[C@@H](O)C(N)=O)c2)c1 [Example 8.13, (2r)-2-hydroxy-3-[4-(3-methyl-5-{[4-(trifluorometh-yl)pyrimidin-2-yl]amino}phenyl)-1H-pyrazol-1-yl]propanamide] | ≤ 100 nM | –
7 | Cc1cc(Nc2nccc(C(F)(F)F)n2)cc(-c2cnn(C[C@H](O)C(N)=O)c2)c1 [Example 8.16, (2s)-2-hydroxy-3-[4-(3-methyl-5-{[4-(trifluorometh-yl)pyrimidin-2-yl]amino}phenyl)-1H-pyrazol-1-yl]propanamide] | ≤ 100 nM | –
8 | Cc1cc(Nc2nccc(OCCO)n2)cc(-c2cnn(C3CCC(C(N)=O)CC3)c2)c1 (stereo not drawn) [Example 8.17, 4-[4-(3-{[4-(2-hydroxy-ethoxy)pyrimidin-2-yl]amino}-5-methylphenyl)-1H-pyrazol-1-yl]-cyclo-hexanecarboxamide] | ≤ 100 nM | –
9 | Cc1cc(Nc2nccc(C(F)(F)F)n2)cc(-c2cnn(C3CCC(C(N)=O)CC3)c2)c1 (stereo not drawn) [Example 8.18, 4-[4-(3-methyl-5-{[4-(trifluorometh-yl)pyrimidin-2-yl]amino}phenyl)-1H-pyrazol-1-yl]-cyclohexane-carboxamide] | ≤ 100 nM | –
10 | Cc1cc(Nc2nccc(C(F)(F)F)n2)cc(-c2cnn(C3CCC(C(N)=O)C(C)(C)C3)c2)c1 (stereo not drawn) [Example 8.19, 2,2-dimethyl-4-[4-(3-methyl-5-{[4-(trifluorometh-yl)pyrimidin-2-yl]amino}phenyl)-1H-pyrazol-1-yl]-cyclohexanecarbox-amide] | ≤ 100 nM | –
11 | Cc1cc(Nc2nccc(C(F)(F)F)n2)cc(-c2cnn(C(C)C(N)=O)c2)c1 (stereo not drawn) [Example 8.20, 2-[4-(3-methyl-5-{[4-(trifluorometh-yl)pyrimidin-2-yl]amino}phenyl)-1H-pyrazol-1-yl]propanamide] | ≤ 100 nM | –
12 | Cc1cc(Nc2nccc(C(F)(F)F)n2)cc(-c2cnn(CC(C)(O)C(N)=O)c2)c1 (stereo not drawn) [Example 8.23, 2-hydroxy-2-methyl-3-[4-(3-methyl-5-{[4-(trifluoromethyl)-pyrimidin-2-yl]amino}-phenyl)-1H-pyrazol-1-yl]propanamide] | ≤ 100 nM | –
13 | Cc1cc(Nc2nccc(C(F)(F)F)n2)cc(-c2cnn(CC(O)c3ccc(C(N)=O)cc3)c2)c1 (stereo not drawn) [Example 8.24, 4-{1-hydroxy-2-[4-(3-methyl-5-{[4-(trifluorometh-yl)pyrimidin-2-yl]amino}-phenyl)-1H-pyrazol-1-yl]ethyl}-benzamide] | ≤ 100 nM | –
14 | Cc1cc(Nc2nccc(C(F)(F)F)n2)cc(-c2cnn(C(C)(C)CC#N)c2)c1 [Example 9.1, 3-methyl-3-[4-(3-methyl-5-{[4-(trifluoromethyl)pyrimidin-2-yl]amino}phenyl)-1H-pyrazol-1-yl]butanenitrile] | ≤ 100 nM | 9 nM
15 | Cc1cc(Nc2nccc(C(F)(F)F)n2)cc(-c2cnn(C3CCCC(O)C3O)c2)c1 (stereo not drawn) [Example 10.2, 3-[4-(3-methyl-5-{[4-(trifluorometh-yl)pyrimidin-2-yl]amino}phen-yl)-1H-pyrazol-1-yl]cyclohexane-1,2-diol] | ≤ 100 nM | –
16 | Cc1cc(Nc2nccc(C(F)(F)F)n2)cc(-c2cnn(C3CCCC(O)C3O)c2)c1 (stereo not drawn) [Example 10.3] | ≤ 100 nM | –
17 | Cc1cc(Nc2nccc(C)n2)cc(-c2cnn(C3CCCC(O)C3O)c2)c1 (stereo not drawn) [Example 10.8, 3-(4-{3-methyl-5-[(4-methylpyrimidin-2-yl)amino]phenyl}-1H-pyrazol-1-yl)cyclohexane-1,2-diol] | ≤ 100 nM | 7.8 nM
18 | Cc1cc(Nc2nccc(C)n2)cc(-c2cnn(C3CCCC(O)C3O)c2)c1 (stereo not drawn) [Example 10.9, 3-(4-{3-methyl-5-[(4-methylpyrimidin-2-yl)amino]phenyl}-1H-pyrazol-1-yl)cyclohexane-1,2-diol] | ≤ 100 nM | 4.8 nM
19 | Cc1cc(Nc2nccc(C)n2)cc(-c2cnn(C3CCCC(O)C3O)c2)c1 (stereo not drawn) [Example 10.10, 3-(4-{3-methyl-5-[(4-methylpyrimidin-2-yl)amino]phenyl}-1H-pyrazol-1-yl)cyclohexane-1,2-diol] | ≤ 100 nM | 29.4 nM

Second part, the compound after the results:

Row | IC50 [1] | IC50 (read-out: rhSYK IC50) | Structure (SMILES)
20 | ≤ 100 nM | 6.2 nM | Cc1cc(Nc2nccc(C3CC3)n2)cc(-c2cnn(C[C@@H](O)C(=O)O)c2)c1 [Example 11.1, (R)-3-(4-(3-(4-cyclopropylpyrimidin-2-ylamino)-5-methylphenyl)-1H-pyrazol-1-yl)-2-hydroxypropanoic acid]
21 | ≤ 100 nM | – | COc1ccnc(Nc2cc(C)cc(-c3cnn(C[C@H](O)C(=O)O)c3)c2)n1 [Example 11.2, (2S)-2-hydroxy-3-(4-{3-[(4-methoxy-pyrimidin-2-yl)amino]-5-methylphenyl}-1H-pyrazol-1-yl)-propanoic acid]
22 | ≤ 100 nM | – | Cc1cc(Nc2nccc(C)n2)cc(-c2cnn(C[C@H](O)C(=O)O)c2)c1 [Example 11.3, (2S)-2-hydroxy-3-(4-{3-methyl-5-[(4-methylpyrimidin-2-yl)amino]phenyl}-1H-pyrazol-1-yl)-propanoic acid]
23 | ≤ 100 nM | – | COc1ccnc(Nc2cccc(-c3cnn(C[C@H](O)C(=O)O)c3)c2)n1 [Example 11.4, (2S)-2-hydroxy-3-(4-{3-[(4-methoxy-pyrimidin-2-yl)-amino]phenyl}-1H-pyrazol-1-yl)-propanoic acid]
24 | ≤ 100 nM | – | Cc1cc(Nc2nccc(C3CC3)n2)cc(-c2cnn(C[C@H](O)C(=O)O)c2)c1 [Example 11.5, (2S)-3-(4-{3-[(4-cyclopropylpyrimidin-2-yl)amino]-5-methyl-phenyl}-1H-pyrazol-1-yl)-2-hydroxy-propanoic acid]
25 | ≤ 100 nM | – | COc1nc(Nc2cc(C)cc(-c3cnn(C[C@H](O)C(=O)O)c3)c2)ncc1Cl [Example 11.6, (2S)-3-(4-{3-[(5-chloro-4-methoxy-pyrimidin-2-yl)-amino]-5-methyl-phenyl}-1H-pyrazol-1-yl)-2-hydroxy-propanoic acid]
26 | ≤ 100 nM | – | Cc1cc(Nc2ncc(Cl)c(C)n2)cc(-c2cnn(C[C@@H](O)C(=O)O)c2)c1 [Example 11.7, (2R)-3-(4-{3-[(5-chloro-4-methyl-pyrimidin-2-yl)-amino]-5-methyl-phenyl}-1H-pyrazol-1-yl)-2-hydroxy-propanoic acid]
27 | ≤ 100 nM | – | COc1ccnc(Nc2cc(C)cc(-c3cnn(C[C@@H](O)C(=O)O)c3)c2)n1 [Example 11.8, (2R)-2-hydroxy-3-(4-{3-[(4-methoxy-pyrimidin-2-yl)-amino]-5-methyl-phenyl}-1H-pyrazol-1-yl)propanoic acid]
28 | ≤ 100 nM | – | COc1nc(Nc2cc(C)cc(-c3cnn(C[C@@H](O)C(=O)O)c3)c2)ncc1Cl [Example 11.9, (2R)-3-(4-{3-[(5-chloro-4-methoxy-pyrimidin-2-yl)-amino]-5-methyl-phenyl}-1H-pyrazol-1-yl)-2-hydroxy-propanoic acid]
29 | ≤ 100 nM | – | Cc1cc(Nc2nccc(C)n2)cc(-c2cnn(C[C@@H](O)C(=O)O)c2)c1 [Example 11.10, (2R)-2-hydroxy-3-(4-{3-methyl-5-[(4-methylpyrimidin-2-yl)amino]phenyl}-1H-pyrazol-1-yl)propanoic acid]
30 | ≤ 100 nM | – | COc1ccnc(Nc2cccc(-c3cnn(C[C@@H](O)C(=O)O)c3)c2)n1 [Example 11.11, (2R)-2-hydroxy-3-(4-{3-[(4-methoxy-pyrimidin-2-yl)amino]phenyl}-1H-pyrazol-1-yl)propanoic acid]
31 | ≤ 100 nM | – | Cc1cc(Nc2ncc(F)c(C)n2)cc(-c2cnn(C[C@@H](O)C(=O)O)c2)c1 [Example 11.13, (2R)-3-(4-{3-[(5-fluoro-4-methylpyrimidin-2-yl)amino]-5-methylphenyl}-1H-pyrazol-1-yl)-2-hydroxypropanoic acid]
32 | ≤ 100 nM | – | Cc1cc(Nc2nccc(OC(C)C)n2)cc(-c2cnn(C[C@@H](O)C(=O)O)c2)c1 [Example 11.14, (2R)-2-hydroxy-3-[4-(3-methyl-5-{[4-(1-methylethoxy)-pyrimidin-2-yl]amino}-phenyl)-1H-pyrazol-1-yl]propanoic acid]
33 | ≤ 100 nM | – | COc1nc(Nc2cc(C)cc(-c3cnn(C[C@@H](O)C(=O)O)c3)c2)ncc1Cl [Example 11.15, (2R)-3-(4-{3-[(5-chloro-4-methoxy-pyrimidin-2-yl)amino]-5-methyl-phenyl}-1H-pyrazol-1-yl)-2-hydroxy-propanoic acid]
34 | ≤ 100 nM | – | Cc1cc(Nc2nccc(C(C)C)n2)cc(-c2cnn(C[C@@H](O)C(=O)O)c2)c1 [Example 11.16, (2R)-2-hydroxy-3-[4-(3-methyl-5-{[4-(1-methylethyl)-pyrimidin-2-yl]amino}phenyl)-1H-pyrazol-1-yl]propanoic acid]
